Legend:
NODAL signaling [1] = experiment: NODAL signaling inhibition in iDiscoid culture, immunofluorescence; assay type: cell-based, human; details: 10 μM SB431542 beginning at day 2 of iDiscoid culture
Method: (§1) Signaling Pathway Inhibition. BMP4 signaling was inhibited via application of 3 μM Dorsomorphin into the normal media at day 3 of iDiscoid culture. NODAL signaling was inhibited via application of 10 μM SB431542 beginning at day 2 of iDiscoid culture. CXCR4 signaling was inhibited via application of 1p M AMD3465 beginning at day 0 of iDiscoid culture.
Staining on glass coverslips. Cells were grown on Matrigel-coated 8 mm diameter circular glass coverslips or on Mattek 35 mm coverslip bottom dishes. Cultures were fixed for 10 minutes in 4% paraformaldehyde (Electron Microscopy Sciences) at room temperature. For toluidine blue staining in FIG. 12B, cells were fixed for 1 hour in 2.5% glutaraldehyde in 0.01M PBS, pH 7.4, at room temperature. Coverslips were then washed three times with PBS followed by 15 minutes permeabilization with 0.2% Triton X-100 in PBS. Subsequently the coverslips were washed three times in washing buffer (0.05% Tween-20 in PBS) for 5 minutes and blocked for 20 minutes in […] wash buffer plus 5% normal donkey serum (Jackson ImmunoResearch Laboratories). The primary antibodies were diluted in 5% normal donkey serum in PBS and incubated with the tissues […] at room temperature followed by three washes in wash buffer for 5 minutes each. The secondary antibodies were diluted in 5% normal donkey serum in PBS and incubated with the tissues 1 hour at room temperature followed by three washes in wash buffer for 5 minutes each. Afterwards, the 8 mm coverslips were mounted on microscopy glass slides using ProLong Glass Antifade (Life Technologies), cured overnight at room temperature and then sealed with nail polish. Coverslips in Mattek dishes were stored in PBS at 4° C. for 3D imaging prior to mounting.
Image Acquisition and Processing. Images were acquired using the EVOS M700 automated scanning microscope, Leica SP8 confocal microscope, or Nikon A1 Confocal microscope and processed using ImageJ software (NIH). Any contrast adjustments were made in individual channels and applied evenly across the whole image in that channel. Contrast and color balance for color images was applied evenly across the whole image. 3D reconstructions were generated using the Nikon A1 confocal microscope to generate z-stacks spanning ˜100 um deep into the tissues and using ImageJ or Imaris (Bitplane) to construct a 3D volume from the stacks.

NODAL signaling [2] = experiment: Day 4 scRNAseq of iDiscoid after SB431542 application at day 2; assay type: cell-based, human
CXCR4 = CXCR4 (Homo sapiens, UniProt P61073); details: 1p M AMD3465 beginning at day 0 of iDiscoid culture; day 5
Method: as §1

iGATA6 cells = experiment: Dox induction of GATA6 gene circuit in iGATA6 hiPSCs; assay type: cell-based, human; details: after treatment with Dox
Method: Generation of iDiscoid. The GATA6-engineered hiPSCs were seeded at a ratio of 4:1 with rtTA expressing hiPSCs either containing or lacking an mKate reporter gene at a total density of 25,000 cells per cm^2 in mTeSR-1 supplemented with […] Y-27632. The next day, the medium was changed to mTeSR-1 with […] doxycycline to induce expression of the GATA6 transgene and replaced daily for up to 5 days.
Time lapse Imaging. iGATA6 cells were seeded at 25,000 cells per cm^2 in a Cellstar 24-well tissue culture treated plate coated […], then induced with 1,000 ng ml^−1 Dox. After induction, the cells were placed under an Incucyte S3 live cell imaging platform at 37C and 5% CO2. Images were taken every 30 min for 3 days.

NODAL = biological target: T1, NODAL (Homo sapiens, UniProt Q96S42); details: cited from earlier work
T1 sequence (Q96S42 238-347): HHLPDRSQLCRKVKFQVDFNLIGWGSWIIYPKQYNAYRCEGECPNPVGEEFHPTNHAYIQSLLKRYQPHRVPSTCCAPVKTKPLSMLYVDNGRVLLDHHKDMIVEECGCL

BMP2 = biological target: T2, BMP2 (Homo sapiens, UniProt P12643); details: cited from earlier work
T2 sequence (P12643 283-396): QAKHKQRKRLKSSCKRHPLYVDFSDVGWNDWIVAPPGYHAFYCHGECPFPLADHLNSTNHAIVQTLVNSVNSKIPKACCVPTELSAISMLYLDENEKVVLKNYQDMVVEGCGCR

BMP4 = biological target: T3, BMP4 (Homo sapiens, UniProt P12644); details: cited from earlier work
T3 sequence (P12644 293-408): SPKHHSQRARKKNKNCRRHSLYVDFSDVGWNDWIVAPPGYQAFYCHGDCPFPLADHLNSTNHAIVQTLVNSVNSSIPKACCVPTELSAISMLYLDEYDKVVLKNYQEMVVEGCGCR

[3] = day 4, SB431542 applied at day 2

Chain of CXCR4 (P61073 whole entry): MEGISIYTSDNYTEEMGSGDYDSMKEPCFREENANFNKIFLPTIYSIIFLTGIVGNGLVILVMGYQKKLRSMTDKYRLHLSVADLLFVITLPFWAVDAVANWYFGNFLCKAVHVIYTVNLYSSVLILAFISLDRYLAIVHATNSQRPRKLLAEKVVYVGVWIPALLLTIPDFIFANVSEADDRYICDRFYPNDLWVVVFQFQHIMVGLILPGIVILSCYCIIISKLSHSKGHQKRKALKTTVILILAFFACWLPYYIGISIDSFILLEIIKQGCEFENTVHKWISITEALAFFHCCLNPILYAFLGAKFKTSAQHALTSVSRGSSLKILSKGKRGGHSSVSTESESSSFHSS

In the case of NC(=O)c1ccc(-c2nc(-c3ccc4c(c3)OCO4)c(-c3ccccn3)[nH]2)cc1 [SB431542], the “ISL1-expressing cells within iDiscoids / ISL1 expression” value (NODAL signaling [1]) is reported as “lost”, the “cavity formation / cavity morphology” value (NODAL signaling [1]) is reported as “maintained” and the “expression of NANOG within the WT clusters” value (NODAL signaling [1]) is reported as “lost”. The “ISL1-expressing cells within iDiscoids / ISL1 expression” value (NODAL signaling [1]; listed as SB431542) was “substantial elimination”, the “cavity formation / cavity morphology” value (NODAL signaling [1]; listed as SB431542) was “preserved” and the “expression of NANOG within the WT clusters” value (NODAL signaling [1]; listed as SB431562) was “substantially decreased”. For the same molecule, the “system state after addition to the culture media” value (NODAL signaling [2]; SB431542 added to the media) was “acquire and maintain a state similar to early human and primate amnion”, the “NANOG expression within the WT (scRNAseq)” value (NODAL signaling [2]; [3]) was “lost” and the “pluripotency markers SOX2 and OCT4 within the WT (scRNAseq)” value (NODAL signaling [2]; [3]) was “retained”. For the same molecule, the “expression of the amnion marker ISL1 (scRNAseq)” value (NODAL signaling [2]; day 4, SB431542 applied at day 2, alongside CDX2, GATA3, AP-2γ) was “present in cluster 2”.

With c1ccc(CNCc2ccc(CN3CCCNCCNCCCNCC3)cc2)nc1 [AMD3465] the “upward migration and contiguous iGATA6 membrane formation” value (CXCR4) was “substantially inhibits”.

In the case of C[C@H]1c2cccc(O)c2C(=O)C2=C(O)[C@]3(O)C(=O)C(C(N)=O)=C(O)[C@@H](N(C)C)[C@@H]3[C@@H](O)[C@@H]21 [Dox, Doxycycline], the “EGFP expression in iGATA6 cells” value (iGATA6 cells) is reported as “upregulate” and the “pluripotency marker NANOG in iGATA6 cells” value (iGATA6 cells) is reported as “loss”.

B1: human CER1: human Cerberus ortholog, cerberus 1 (CER1) polypeptide (protein, UniProt O95813 18-267, looked up)
Cerberus: TRHQDGRQNQSSLSPVLLPRNQRELPTGNHEEAEEKPDLFVAVPHLVATSPAGEGQRQREKMLSRFGRFWKKPEREMHPSRDSDSEPFPPGTQSLIQPIDGMKMEKSPLREEAKKFWHHFMFRKTPASQGVILPIKSHEVHWETCRTVPFSQTITHEGCEKVVVQNNLCFGKCGSVHFPGAAQHSHTSCSHCLPAKFTTMHLPLNCTELSSVIKVVMLVEECQCKVKTEHEDGHILHAGSQDSFIPGVSA
For B1, the “affinity for NODAL” value (NODAL) is given as “high affinity”, the “affinity for BMP2” value (BMP2) is given as “minimal affinity” and the “affinity for BMP4” value (BMP4) is given as “minimal affinity”.

From patent US20250340847A1, “CELL CULTURE SYSTEM, USES THEREOF AND CELLS DERIVED THEREFROM” (UNIVERSITY OF PITTSBURGH-OF THE COMMONWEALTH SYSTEM OF …, priority 2022, published 2025)
